Assay results reported in patent publication US20220151230A1, “SPECIFICALLY SUBSTITUTED 3-(2-HALOGEN-6-ALKYL-4-PROPINYLPHENYL)-3-PYRROLIN-2-ONES AND TO THE USE THEREOF AS HERBICIDES” (Bayer Aktiengesellschaft, priority 2019, published 2022).

Experiments:
ALOMY [1] = assay: Post-emergence herbicidal effect against ALOMY; format: in vivo, Alopecurus myosuroides; conditions: one-leaf stage, 80 g/ha, assessed visually after about 3 weeks vs untreated controls, 100% = plants have died
Procedure: (§1) Seeds of monocotyledonous and dicotyledonous weed and crop plants are laid out in sandy loam soil in wood-fiber pots, covered with soil and cultivated in a greenhouse under good growth conditions. 2 to 3 weeks after sowing, the test plants are treated at the one-leaf stage. The compounds of the invention, formulated in the form of wettable powders (WP) or as emulsion concentrates (EC), are then sprayed onto the green parts of the plants as aqueous suspension or emulsion at a water application rate equating to 600 to 800 l/ha with addition of 0.2% wetting agent. After the test plants have been left to stand in the greenhouse under optimal growth conditions for about 3 weeks, the action of the preparations is assessed visually in comparison to untreated controls (herbicidal action in percent (%): 100% activity=the plants have died, 0% activity=like control plants).

AVEFA [2] = assay: Post-emergence herbicidal effect against AVEFA; format: in vivo, Avena fatua; conditions: one-leaf stage, 80 g/ha, assessed visually after about 3 weeks vs untreated controls, 100% = plants have died
Procedure: as §1

DIGSA [3] = assay: Post-emergence herbicidal effect against DIGSA; format: in vivo, Digitaria sanguinalis; conditions: one-leaf stage, 80 g/ha, assessed visually after about 3 weeks vs untreated controls, 100% = plants have died
Procedure: as §1

ECHCG [4] = assay: Post-emergence herbicidal effect against ECHCG; format: in vivo, Echinochloa crus-galli; conditions: one-leaf stage, 80 g/ha, assessed visually after about 3 weeks vs untreated controls, 100% = plants have died
Procedure: as §1

LOLRI [5] = assay: Post-emergence herbicidal effect against LOLRI; format: in vivo, Lolium rigidum; conditions: one-leaf stage, 80 g/ha, assessed visually after about 3 weeks vs untreated controls, 100% = plants have died
Procedure: as §1

SETVI [6] = assay: Post-emergence herbicidal effect against SETVI; format: in vivo, Setaria viridis; conditions: one-leaf stage, 80 g/ha, assessed visually after about 3 weeks vs untreated controls, 100% = plants have died
Procedure: as §1

HORMU = assay: Post-emergence herbicidal effect against HORMU; format: in vivo, Hordeum murinum; conditions: one-leaf stage, 80 g/ha, assessed visually after about 3 weeks vs untreated controls, 100% = plants have died
Procedure: as §1

ALOMY [7] = assay: Pre-emergence herbicidal effect against ALOMY; format: in vivo, Alopecurus myosuroides; conditions: 320 g/ha, scored visually after 3 weeks vs untreated controls, 100% = plants have died
Source text: (§2) Seeds of monocotyledonous and dicotyledonous weed plants and crop plants are laid out in sandy loam soil in wood-fiber pots and covered with soil. The compounds of the invention, formulated in the form of wettable powders (WP) or as emulsion concentrates (EC), are then applied to the surface of the covering soil as aqueous suspension or emulsion at a water application rate equating to 600 to 800 L/ha with addition of 0.2% wetting agent.
(§3) After the treatment, the pots are placed in a greenhouse and kept under good growth conditions for the trial plants. The damage to the test plants is scored visually after a test period of 3 weeks by comparison with untreated controls (herbicidal activity in percent (%): 100% activity=the plants have died, 0% activity=like control plants).

AVEFA [8] = assay: Pre-emergence herbicidal effect against AVEFA; format: in vivo, Avena fatua; conditions: 320 g/ha, scored visually after 3 weeks vs untreated controls, 100% = plants have died
Source text: as §2, §3

DIGSA [9] = assay: Pre-emergence herbicidal effect against DIGSA; format: in vivo, Digitaria sanguinalis; conditions: 320 g/ha, scored visually after 3 weeks vs untreated controls, 100% = plants have died
Source text: as §2, §3

LOLRI [10] = assay: Pre-emergence herbicidal effect against LOLRI; format: in vivo, Lolium rigidum; conditions: 320 g/ha, scored visually after 3 weeks vs untreated controls, 100% = plants have died
Source text: as §2, §3

SETVI [11] = assay: Pre-emergence herbicidal effect against SETVI; format: in vivo, Setaria viridis; conditions: 320 g/ha, scored visually after 3 weeks vs untreated controls, 100% = plants have died
Source text: as §2, §3

VIOTR = assay: Pre-emergence herbicidal effect against VIOTR; format: in vivo, Viola tricolor; conditions: 320 g/ha, scored visually after 3 weeks vs untreated controls, 100% = plants have died
Source text: as §2, §3

ECHCG [12] = assay: Pre-emergence herbicidal effect against ECHCG; format: in vivo, Echinochloa crus-galli; conditions: 320 g/ha, scored visually after 3 weeks vs untreated controls, 100% = plants have died
Source text: as §2, §3

Compound	Post-emergence action [%] against ALOMY (ALOMY [1]) [%]	Post-emergence action [%] against AVEFA (AVEFA [2]) [%]	Post-emergence action [%] against DIGSA (DIGSA [3]) [%]	Post-emergence action [%] against ECHCG (ECHCG [4]) [%]	Post-emergence action [%] against LOLRI (LOLRI [5]) [%]	Post-emergence action [%] against SETVI (SETVI [6]) [%]	Post-emergence action [%] against HORMU (HORMU) [%]	Pre-emergence action [%] against ALOMY (ALOMY [7]) [%]	Pre-emergence action [%] against AVEFA (AVEFA [8]) [%]	Pre-emergence action [%] against DIGSA (DIGSA [9]) [%]	Pre-emergence action [%] against LOLRI (LOLRI [10]) [%]	Pre-emergence action [%] against SETVI (SETVI [11]) [%]	Pre-emergence action [%] against VIOTR (VIOTR) [%]	Pre-emergence action [%] against ECHCG (ECHCG [12]) [%]
CC#Cc1cc(C)c(C2=C(O)C3(CCCC(OCCC)C3)NC2=O)c(Cl)c1 (stereo not shown) [Example D1, 3-[2-Chloro-6-methyl-4-(prop-1-yn-1-yl)phenyl]-4-hydroxy-7-propoxy-1-azaspiro[4.5]dec-3-en-2-one]	100	100	100	100	100	100	100	–	–	–	–	–	–	–
CC#Cc1cc(C)c(C2=C(O)C3(CCC(CC)CC3)NC2=O)c(Cl)c1 (stereo not shown) [Example E1]	100	100	100	100	100	100	100	–	–	–	–	–	–	–
C=CCOC1CCC2(CC1)NC(=O)C(c1c(C)cc(C#CC)cc1Cl)=C2O (stereo not shown) [Example E7]	100	80	100	100	100	100	90	–	–	–	–	–	–	–
CC#Cc1cc(C)c(C2=C(O)C3(CCC(OCC)CC3)NC2=O)c(Cl)c1 (stereo not shown) [Example E10]	100	100	100	100	100	100	100	–	–	–	–	–	–	–
CC#Cc1cc(C)c(C2=C(O)C3(CCC(OC(C)C)CC3)NC2=O)c(Cl)c1 (stereo not shown) [Example E13]	100	100	100	100	100	100	100	–	–	–	–	–	–	–
CC#Cc1cc(C)c(C2=C(O)C3(CCC(OC)CC3)NC2=O)c(Cl)c1 (stereo not shown) [Example E19]	100	100	100	100	100	100	100	–	–	–	–	–	–	–
CC#Cc1cc(C)c(C2=C(O)C3(CCC(OC)CC3)NC2=O)c(Br)c1 (stereo not shown) [Example E21]	100	90	100	100	100	100	–	100	100	100	100	100	100	100
CC#Cc1cc(C)c(C2=C(OC(=O)OCC)C3(CCC(CC)CC3)NC2=O)c(Cl)c1 (stereo not shown) [Example P3]	100	–	100	100	100	100	100	–	–	–	–	–	–	–
CC#Cc1cc(C)c(C2=C(OC(=O)OC)C3(CCC(OC)CC3)NC2=O)c(Cl)c1 (stereo not shown) [Example P10]	100	100	100	100	100	100	100	–	–	–	–	–	–	–
CC#Cc1cc(C)c(C2=C(OC(=O)OCC)C3(CCC(OC)CC3)NC2=O)c(Cl)c1 (stereo not shown) [Example P11]	100	100	100	100	100	100	90	–	–	–	–	–	–	–
CC#Cc1cc(C)c(C2=C(OC(=O)C(C)C)C3(CCC(OC)CC3)NC2=O)c(Cl)c1 (stereo not shown) [Example P12]	100	100	100	100	100	100	100	–	–	–	–	–	–	–
CC#Cc1cc(C)c(C2=C(OC(=O)OCC)C3(CCC(OC)CC3)NC2=O)c(Br)c1 (stereo not shown) [Example P13]	100	100	100	100	100	100	–	100	100	100	100	100	100	100
CC#Cc1cc(C)c(C2=C(OC(=O)OCC)C3(CCC(OC(C)C)CC3)NC2=O)c(Cl)c1 (stereo not shown) [Example P15]	100	100	100	100	100	100	90	–	–	–	–	–	–	–
CC#Cc1cc(C)c(C2=C(OC(=O)OCC)C3(CCC(OCC)CC3)NC2=O)c(Cl)c1 (stereo not shown) [Example P16]	100	100	100	100	100	100	100	–	–	–	–	–	–	–
CC#Cc1cc(C)c(C2=C(OC(=O)OCC)C3(CCC(OCCOC)CC3)NC2=O)c(Cl)c1 (stereo not shown) [Example P17]	100	100	100	100	100	100	–	100	100	100	100	100	100	100
CC#Cc1cc(Cl)c(C2=C(OC(=O)OCC)C3(CCC(OC)CC3)NC2=O)c(CC)c1 (stereo not shown) [Example P21]	90	80	100	100	80	100	–	100	100	100	100	100	90	100
CC#Cc1cc(C)c(C2=C(OC(=O)OCC)C3(CCCC(OCCC)C3)NC2=O)c(Cl)c1 (stereo not shown) [Example Q5]	100	100	100	100	100	100	100	–	–	–	–	–	–	–
